Several values for one entry are separate records, joined by “and”; a condition that tells them apart may be missing. Identical values can stand only once. Like-named read-outs stand apart in the source and are kept apart here.
Experiments:
[1] = system: L. mexicana NT3-KO promastigotes; assay: Radiolabel transport assay in NT3-KO cells; format: cell-based, Leishmania mexicana; conditions: for rate of uptake: NT3-KO cells; for upregulation of uptake rate in NT3-KO relative to cas9: adenosine and inosine at 100 nM, separate experiments listed singly
Experimental: (§1) Transport assays were performed exactly as described previously. Briefly, 10^7 cells in 100 μL of assay buffer (AB) were mixed with an equal volume of radiolabel at 2× concentration for a preset time. The incubation was terminated by the addition of 700 μL of “Stop solution”, being ice-cold 1 mM solution of unlabelled permeant, followed by immediate centrifugation through an oil layer in a microfuge at 13,000 rpm. This causes the cell pellet to reside under the oil layer and isolated from residual radiolabel in the assay buffer. The tubes were flash-frozen in liquid nitrogen and the bottom tip, containing the cell pellet, cut off and collected in a scintillation tube. Cells were solubilized by gentle shaking after addition of a 2% SDS solution, before the addition of scintillation fluid (Scintilogic U, Lablogic, Sheffield, UK); the tubes were left to stand in the dark overnight before counting in a 300SL Hidex Scintillation Counter (Lablogic). Linear and nonlinear regression analyses were carried out using GraphPad Prism versions 8.0 and higher. […] However, all parameters, including Km, Vmax, Ki, given are the average of at least three separate, independent determinations; errors given are standard errors, unless otherwise specified.

TcrNB2 [2] = target: T1, TcrNB2 (Trypanosoma cruzi, UniProt Q4DHG0); assay: Transport assay, TcrNB2 expressed in LmexNT3-KO; format: cell-based
T1 sequence (Q4DHG0 1-440): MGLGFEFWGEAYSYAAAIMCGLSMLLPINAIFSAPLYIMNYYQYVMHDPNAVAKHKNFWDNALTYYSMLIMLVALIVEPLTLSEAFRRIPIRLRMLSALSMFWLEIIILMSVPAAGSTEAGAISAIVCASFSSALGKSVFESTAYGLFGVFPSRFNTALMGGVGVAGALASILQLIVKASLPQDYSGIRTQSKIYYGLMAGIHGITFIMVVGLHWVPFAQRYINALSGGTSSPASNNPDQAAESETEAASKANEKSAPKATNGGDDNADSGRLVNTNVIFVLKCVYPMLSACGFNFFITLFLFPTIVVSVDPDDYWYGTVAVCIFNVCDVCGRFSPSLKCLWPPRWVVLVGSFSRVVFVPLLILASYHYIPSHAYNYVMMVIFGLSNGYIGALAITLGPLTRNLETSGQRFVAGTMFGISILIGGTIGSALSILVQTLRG
Experimental: as §1

L. mexicana cas9 cells [3] = assay: Radiolabel transport assay in cas9 cells; format: cell-based, Leishmania mexicana; conditions: cas9 cells
Experimental: as §1

L. mexicana cas9 cells [4] = assay: Growth curve of cas9 cells with selection agents; format: cell-based, Leishmania mexicana; conditions: 5 μM tubercidin, 5 μg/mL blasticidin, 20 µg/mL puromycin, 1 µM formycin B
Experimental: The growth rates of the L. mexicana promastigotes were determined in the standard HOMEM medium supplemented with 10% FBS, in 12-well plates, in triplicate. After every 24 h, cells were counted in a sample of the culture, using either a Neubauer hemocytometer chamber (Hawksley, Birmingham, UK) or by a coulter particle counter and size analyzer (Beckman, Brea, CA, USA) to count the cells in triplicate. An average of the triplicate readings was taken and plotted using GraphPad Prism 8 software to obtain the growth curves.

TvagENT3 [5] = target: T2, TvagENT3 (Trichomonas vaginalis, UniProt A2E5Q3); assay: cell-based
T2 sequence (A2E5Q3 entry or part of it): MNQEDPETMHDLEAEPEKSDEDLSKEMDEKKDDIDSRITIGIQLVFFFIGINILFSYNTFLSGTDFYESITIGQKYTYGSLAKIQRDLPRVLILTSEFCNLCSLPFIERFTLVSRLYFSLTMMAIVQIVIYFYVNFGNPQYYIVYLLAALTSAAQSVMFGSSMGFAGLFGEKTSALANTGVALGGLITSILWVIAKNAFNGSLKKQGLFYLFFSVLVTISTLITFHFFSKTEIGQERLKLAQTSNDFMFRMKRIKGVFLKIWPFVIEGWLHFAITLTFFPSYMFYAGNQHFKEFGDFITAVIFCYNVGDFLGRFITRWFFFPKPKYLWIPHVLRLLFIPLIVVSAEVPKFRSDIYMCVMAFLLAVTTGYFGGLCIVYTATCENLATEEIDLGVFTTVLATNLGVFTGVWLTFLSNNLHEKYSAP
Experimental: as §1

[6] = system: L. mexicana SUPKO (ΔNT1.1/1.2/2) cells; assay: Radiolabel transport assay in SUPKO cells; format: cell-based, Leishmania mexicana; conditions: for rate of uptake: SUPKO cells; for uptake reduced in SUPKO compared to cas9: 100 nM (0.1 µM) radiolabel
Experimental: as §1

L. mexicana NT2-KO cells = assay: Radiolabel transport assay in NT2-KO cells; format: cell-based, Leishmania mexicana; conditions: for inhibition of residual [^3H]-guanosine uptake in NT2-KO: 250 µM inhibitor, 100 nM [^3H]-guanosine
Experimental: as §1

TcrNB2 [7] = target: T1, TcrNB2; assay: Transport assay, TcrNB2 expressed in NT1-KO; format: cell-based; conditions: 50 nM [^3H]-adenosine, 100 nM [^3H]-hypoxanthine, 100 nM [^3H]-uracil; data not shown
Experimental: as §1

TvagENT3 [8] = target: T2, TvagENT3; conditions: TvagENT3 expressed in T. brucei; cited from earlier work
[9] = system: L. mexicana NT1-KO promastigotes; assay: Resazurin (Alamar blue) drug sensitivity assay, NT1-KO line; format: cell-based, Leishmania mexicana
Experimental: The assay is based on the reduction of the dye resazurin (Alamar blue) by live but not dead cells and was performed with various strains of Leishmania mexicana promastigotes, exactly as described. Briefly, doubling dilutions starting at 100 µM were set up over 2 rows of a 96-well plate and 2 × 10^5 cells were added to each well, followed by incubation at 25 °C. After 72 h, 20 µL of 125 µg/mL resazurin solution was added and the plates incubated for a further 24 h. Fluorescence was determined in a FLUOstar OPTIMA plate reader (BMG Labtech, Ortenberg, Germany), reading the fluorescence intensity in arbitrary units (A.U.) at 544 nm wavelength for excitation and 620 nm wavelength for emission. The EC50 values and fluorescence data were determined and plotted to a sigmoid curve with variable slope, using the GraphPad Prism 8 software package. All EC50 values were determined on at least three independent occasions and are presented as average ± SEM.

LmexNT1.2 = assay: Transport assay, LmexNT1.2 expressed in SUPKO; format: cell-based, Leishmania mexicana
Experimental: as §1

LmexNT1.1 = assay: Transport assay, LmexNT1.1 expressed in SUPKO; format: cell-based, Leishmania mexicana; conditions: SUPKO expressing LmexNT1.1, 50 nM radiolabel
Experimental: as §1

L. major U1 transporter = target: L. major U1 transporter; set-up: method as in PMID 15796010; conditions: unit printed only with the uridine value; cited from earlier work
[10] = substrate: Nc1ncnc2nc[nH]c12; assay: Transport assay, TcrNB2 expressed in LmexNT3-KO; format: cell-based, Trypanosoma cruzi
Experimental: as §1

[11] = 100 nM radiolabel, listed as [^3H]-guanosine

Nc1ncnc2[nH]cnc12 [adenine]
rate of transport in NT3-KO as % of that in cas9 ([1]; 100 nM radiolabel): < 1%
uptake in NT3-KO lower than in cas9 ([1]; 100 nM radiolabel, over 15 s): > 100 fold
rate of uptake ([1]; 100 nM radiolabel): 0.000207 ± 0.000094 pmol(10^7 cells)^−1s^−1
rate of uptake (TcrNB2 [2]; NT3-KO expressing TcrNB2, 100 nM radiolabel): 0.00036 ± 0.00001 pmol(10^7 cells)^−1s^−1
Vmax (TcrNB2 [2]; TcrNB2 in NT3-KO, n = 3): 0.26 ± 0.04 pmol(10^7 cells)^−1s^−1
rate of uptake (L. mexicana cas9 cells [3]; 100 nM radiolabel): 0.0213 ± 0.0009 pmol(10^7 cells)^−1s^−1

CN(CC[C@H](N)CC(=O)N[C@H]1C=C[C@H](n2ccc(N)nc2=O)O[C@@H]1C(=O)O)C(=N)N [blasticidin]
sensitivity of cas9 cells in growth curve (L. mexicana cas9 cells [4]): confirmed

Nc1ccn([C@@H]2O[C@H](CO)[C@@H](O)[C@H]2O)c(=O)n1 [cytidine]
rate of uptake (TvagENT3 [5]; SUPKO expressing TvagENT3, 500 nM radiolabel): 1.8 × 10^−4 ± 1.3 × 10^−5 pmol(10^7 cells)^−1s^−1
upregulation of uptake rate in NT3-KO relative to cas9 ([1]; listed as [^3H]-cytidine): 3.0 fold and 3.7 fold
rate of uptake ([6]; 500 nM radiolabel): 1.5 × 10^−5 ± 9 × 10^−6 pmol(10^7 cells)^−1s^−1

Nc1nc2c(ncn2[C@@H]2O[C@H](CO)[C@@H](O)[C@H]2O)c(=O)[nH]1 [guanosine]
rate of uptake lower in NT2-KO than in cas9 (L. mexicana NT2-KO cells; 100 nM radiolabel): 84.5%
inhibition of residual [^3H]-guanosine uptake in NT2-KO (L. mexicana NT2-KO cells): completely inhibited
rate of uptake (L. mexicana NT2-KO cells; NT2-KO cells, 100 nM radiolabel): 0.0009 ± 0.00014 pmol(10^7 cells)^−1s^−1
upregulation of uptake rate in NT3-KO relative to cas9 [1]: 1.7 fold and 2.1 fold
rate of uptake (L. mexicana cas9 cells [3]; [11]): 0.010 ± 0.0006 pmol(10^7 cells)^−1s^−1 and 0.0058 ± 0.0003 pmol(10^7 cells)^−1s^−1
uptake reduced in SUPKO compared to cas9 [6]: 95.5%
rate of uptake [6, 11]: 0.00046 ± 0.00011 pmol(10^7 cells)^−1s^−1

O=c1[nH]cnc2nc[nH]c12 [hypoxanthine]
inhibition of residual [^3H]-guanosine uptake in NT2-KO (L. mexicana NT2-KO cells): completely inhibited
uptake detected in NT3-KO cells ([1]; 100 nM radiolabel, p = 0.72): no significant hypoxanthine uptake was detected
rate of uptake ([1]; 100 nM radiolabel): 0.00019 ± 0.00045 pmol(10^7 cells)^−1s^−1
inhibition at 1000 µM (TcrNB2 [2]; 1 mM inhibitor, TcrNB2 in NT3-KO, read-out: inhibition of adenine uptake): 31.1 ± 4.3%
effect of TcrNB2 expression on uptake in NT1-KO cells (TcrNB2 [7]): did not increase
rate of uptake ([6]; 100 nM radiolabel): 0.045 ± 0.004 pmol(10^7 cells)^−1s^−1

O=c1[nH]cnc2c1ncn2[C@@H]1O[C@H](CO)[C@@H](O)[C@H]1O [inosine]
Ki (TvagENT3 [5]; TvagENT3 in SUPKO, inhibition of 50 nM [^3H]-adenosine uptake): 2.7 ± 0.5 µM
rate of uptake ([1]; 100 nM radiolabel): 0.061 ± 0.002 pmol(10^7 cells)^−1s^−1
upregulation of uptake rate in NT3-KO relative to cas9 [1]: 4 fold
Ki (TvagENT3 [8]): 3.3 ± 0.07 µM
rate of uptake (L. mexicana cas9 cells [3]; 100 nM radiolabel): 0.016 ± 0.002 pmol(10^7 cells)^−1s^−1

N=C(N)c1ccc(OCCCCCOc2ccc(C(=N)N)cc2)cc1 [pentamidine]
EC50 (internal control) ([9]; NT1-KO compared with cas9): unchanged

COc1ccc(C[C@H](N)C(=O)N[C@H]2[C@@H](O)[C@H](n3cnc4c(N(C)C)ncnc43)O[C@@H]2CO)cc1 [puromycin]
sensitivity of cas9 cells in growth curve (L. mexicana cas9 cells [4]): confirmed

Cc1cn([C@H]2C[C@H](O)[C@@H](CO)O2)c(=O)[nH]c1=O [thymidine]
upregulation of uptake rate in NT3-KO relative to cas9 [1]: 3.45 fold
rate of uptake (L. mexicana cas9 cells [3]; 50 nM radiolabel): 0.0018 ± 0.0001 pmol(10^7 cells)^−1s^−1
uptake reduced in SUPKO compared to cas9 [6]: 95.7 ± 1.8%
rate of uptake ([6]; 50 nM radiolabel): 8.7 × 10^−5 ± 1.2 × 10^−5 pmol(10^7 cells)^−1s^−1

Nc1ncnc2c1ccn2[C@@H]1O[C@H](CO)[C@@H](O)[C@H]1O [tubercidin]
sensitivity of cas9 cells in growth curve (L. mexicana cas9 cells [4]): confirmed
shift in tubercidin sensitivity ([9]; NT1-KO vs cas9, resazurin assay): 60 fold

O=c1ccn([C@@H]2O[C@H](CO)[C@@H](O)[C@H]2O)c(=O)[nH]1 [uridine]
rate of uptake (LmexNT1.2; SUPKO expressing LmexNT1.2, 50 nM radiolabel): 0.0076 ± 0.0009 pmol(10^7 cells)^−1s^−1
uptake faster by cells expressing NT1.2 than NT1.1 (LmexNT1.2; SUPKO transfectants, p = 0.0004): 6.3 fold
rate of uptake (LmexNT1.1): 0.0012 ± 0.0001 pmol(10^7 cells)^−1s^−1
Ki (L. major U1 transporter): 10.9 ± 3.2 µM
rate of uptake (L. mexicana cas9 cells [3]; 100 nM radiolabel): 0.10 ± 0.003 pmol(10^7 cells)^−1s^−1
uptake reduced in SUPKO compared to cas9 ([6]; listed as [^3H]-uridine): 88.3% and 98.6% and 97.5%
rate of uptake ([6]; 50 nM radiolabel): not significantly different from zero
rate of uptake ([6]; 100 nM radiolabel): 0.0014 ± 0.00009 pmol(10^7 cells)^−1s^−1

B1: TcrNB2 (Trypanosoma cruzi strain CL Brener) (protein)
chain: T1 sequence (Q4DHG0 1-440)
Km ([10]; other: TcrNB2 in NT3-KO, 100 nM [^3H]-adenine, n = 3): 14.2 ± 2.6 µM
Km ([10]; other: one of three independent repeats, incubation time 120 s): 14.99 µM

From PMC9331716, “Nucleoside Transport and Nucleobase Uptake Null Mutants in Leishmania mexicana for the Routine Expression and Characterization of Purine and Pyrimidine Transporters” (International Journal of Molecular Sciences, 2022)
